US20020115659A1, “Compounds having heterocyclic groups containing two nitrogen atoms for treating multidrug resistance” (priority 2000, published 2002)

Test system: NIH-MDR1-G185 cells
Test: Fluorescent substrate accumulation assay (BODIPY-FL Taxol accumulation)
Assay type: cell-based
Details: MDR modulator 10 micromolar, 15 min preincubation; BODIPY-FL Taxol 500 nM, 40 min at 37° C.; fluorescence in presence/absence of modulator
Protocol: NIH-MDR1-G185 cells (obtained from M. Gottesman, NIH) were harvested and resuspended in RPMI-1640 containing L-glutamine, 10% Cosmic Calf Serum and penicillin-streptomycin. Cell suspension aliquots of 175 microliters (1×10^5 cells) were added to individual wells of a 96 well microtiter plate and preincubated for 15 min at 37° C. with 20 microliter MDR modulator diluted in cell culture media to give a final concentration of 10 micromolar. Control wells received no modulating agent. BODIPY-FL Taxol (Molecular Probes, Eugene, Oreg.) was added to each well in 10 microliter aliquots to give a final concentration of 500 nM and cells were incubated for 40 min at 37° C. Cells were centrifuged at 100× g for 5 min at 4° C. and the cell pellet washed with 200 microliters cold PBS to remove fluorescent medium from wells. Cells were centrifuged once more, media removed, and cells resuspended in 200 microliters cold PBS. Fluorescence accumulation was measured in a fluorescence plate reader fitted with an excitation filter of 485 nm and an emission filter of 538 rn. BODIPY-FL taxol accumulation in the cells was calculated as follows:
Accumulation Index=(fluorescence in NIH-MDR1-G185 cells in the presence of modulator)/(fluorescence in NIH-MDR1-G185 cells in absence of modulator)
Accumulation Index of various compounds prepared above was tested according to the method in Reference Example 3.

| SMILES | Accumulation Index |
| --- | --- |
| O=C(C(CCCc1ccccc1)CCCc1ccccc1)N1CCCCN(C[C@@H](O)COc2cccc3ncccc23)C1 [Example 5] | 12 |
| COc1ccc(S(=O)(=O)N2CCC(=O)N(c3ccccc3)C2C(=O)N2CCN(C(c3ccccc3)c3ccccc3)CC2)cc1OC (centres unmarked) [Example 12] | 7 |
